Data taken from US20110160279A1, “METHODS FOR TREATMENT AND PREVENTION OF OTOTOXICITY BY siRNA” (BOARD OF TRUSTEES OF SOUTHERN ILLINOIS UNIVERSITY, priority 2007, published 2011).
Entries after “also recorded” stand apart in the source; their conditions may differ.

Key:
TRPV1 [1] = type: cell-based, mouse
Description: (§1) Immortalized organ of Corti cells derived from the mouse, UB/OC-1 cells, were obtained from Dr. Matthew Holley (Institute of Molecular Physiology, Addison Building, Western Bank, Sheffield, UK) and cultured in RPMI 1640 supplemented with 10% Fetalclone II (Hyclone, Logan, Utah) serum and penicillin-streptomycin. Cultures were grown in a 33° C. incubator in 10% CO2.
To further study the role of ROS generated via cochlear NADPH oxidases in the induction of TRPV1 in the cochlea, in vitro experiments were performed using the organ of Corti transformed hair cell line, UB/OC1 (Rivolta et al., Proc. R. Sco. Lond., 265, 1595-1603, 1998). […] Immunolabeling was quantitated by fluorescence imaging using a confocal microscope. […] The immunofluorescence in these groups was reduced by 60 and 70%, respectively (FIG. 2B). […] The increases in expression of these genes were inhibited by DPI (10 μM), indicative of a role or NADPH oxidase activity in the induction of these subunits (FIG. 2G).

NOX3 mRNA [2] = assay: Real time RT-PCR of NOX3 mRNA in UB/OC-1 cells; type: cell-based, mouse
Description: as §1
(§2) RNA was isolated by adding 1 ml TR1 reagent to 100 mg of cochlear or cortical tissue or 0.5 ml TR1 reagent (Sigma, St. Louis, Mo.) per well of each six well plate, according to the manufacturer's instructions.
(§3) Real time reverse transcriptase polymerase chain reaction (RT-PCR): One microgram of total RNA was converted to cDNA using iScript cDNA Synthesis Kit (Bio-Rad, Hercules, Calif.), and qRTPCR was performed as described by (Mukherjea et al, 2006). Gene specific primer pairs were used for the various reactions and mRNA expression levels were normalized to the levels of GAPDH house keeping gene.
(§4) The rodent set of primers and siRNA were based on the homologous sequences in the rat and mouse cDNA sequences. The primers were purchased from Sigma Genosys (St. Louis, Mo.). Purified siRNA duplexes were purchased from Qiagen (Valencia, Calif.).

gp91 [3] = assay: Real time RT-PCR of gp91 mRNA in UB/OC-1 cells; type: cell-based, mouse
Description: as §1, §2, §3, §4

Rac1 [4] = assay: Real time RT-PCR of Rac1 mRNA in UB/OC-1 cells; type: cell-based, mouse
Description: as §1, §2, §3, §4

UB-OC1 cells [5] = assay: Cell viability and morphology of UB-OC1 cultures; type: cell-based, mouse
NADPH oxidase = conditions: 10 μM, cochlear extracts, Lucigenin probe
Description: In order to determine whether noise exposure increased the activity of NADPH oxidase in the chinchilla cochlea, a major source of reactive oxygen species (ROS), the activity of NADPH oxidase in cytosolic preparations from the cochlea was examined. The activity of NAD(P)H oxidase was determined using 50 μg protein from cochlear extracts incubated with 100 μM β-NAD(P)H in a total volume of 200 μl of Hank's HEPES buffer (pH 7.4). The assay was initiated by the addition of 50 μM N,N′-dimethyl-9,9′-biacridinium dinitrate (Lucigenin) (Sigma, St. Louis, Mo.) to the incubation mixture. Samples were counted immediately using a table top luminometer (Berthold Detection Systems FB Luminometer, Zylux Corp., Maryville, Tenn.) with sampling time every 6 sec. Samples were counted over a period of 5 min and the fluorescence recorded over 2 min of stable readings were averaged for that samples. Samples were run in duplicate and the NAD(P)H oxidase activity was normalized to the protein concentrations in each sample.

UB-OC1 cells [6] = assay: Apoptosis by TUNEL staining in UB-OC1 cells; type: cell-based, mouse; conditions: for apoptotic cells (TUNEL), of total cells: pretreated 30 min with TRPV1 inhibitor, then cisplatin 20 μM 24 h
Description: as §1
Frag-EL DNA fragmentation kit and H2DCFDA dye was purchased from (Calbiochem, San Diego, Calif.). TRPV1 antibody (Neuromics, Edina, Minn.) and secondary goat anti rabbit antibody was purchased from Santa Cruz Biotechnology (Santa Cruz, Calif.).
(§5) The increases in these proteins were attenuated by capsazepine (10 μM), implicating TRPV1 in this process.

p53 = p53 protein expression in UB/OC-1 cells; type: cell-based, mouse
Description: as §5

Bax = Bax protein expression in UB/OC-1 cells; type: cell-based, mouse
Description: as §5

UB/OC-1 = assay: Gentamicin-induced ROS generation by DCF2DA in UB/OC-1 cells; type: cell-based, mouse; conditions: capsazepine 10 μM or ruthenium red 20 μM for 15 min, then gentamicin (20 μM) 30 min
Description: FIG. 5 depicts that inhibition of TRPV1 reduces generation of reactive oxygen species (ROS) by aminoglycosides. UB/OC-1 cultures were pretreated with vehicle (control), capsazepine (10 μM) or ruthenium red (20 μM) for 15 min prior to the administration of vehicle (control) or gentamicin (20 μM) for 30 min and the generation of reactive oxygen species was determined by the fluorescence of 2′,7′-dichlorodihydrofluorescein diacetate (DCF2DA) using confocal microscopy.
In this study, the mouse organ of Corti cell line (UB/OC-1) was used to examine the properties of aminoglycoside-induced ROS generation. For these experiments, cells were grown on coverslips to 60-80% confluency, then pretreated with vehicle (control and gentamicin groups), capsazepine (10 μM) or ruthenium red (20 μM) for 15 min. This was followed by vehicle (control) or gentamicin for 30 min. Cells were then loaded with 2′,7′-dichlorodihydrofluorescein diacetate (DCF2DA) and imaged by confocal microscopy.

TRPV1 [7] = assay: TRPV1 immunoreactivity in rat cochlea sections; type: in vivo; conditions: 72 h following cisplatin 13 mg/kg i.p.; confocal microscopy
Description: Cochleae perfused with 4% paraformaldehyde were processed for decalcification and sectioning as described in (Dunaway et al., 2003). TRPV1-1 antibody was diluted 1:100 and samples were incubated for 1 h at 37° C. incubator. Secondary antibody used was goat anti-rabbit IgG conjugated to horse radish peroxidase (Santa Cruz Biotechnology, Inc, Santa Cruz, Calif.) which was diluted 1:200. ABC staining system (Santa Cruz Biotechnology), which included a diaminobenzadine as a peroxidase substrate, was used for visualization of protein expression. Slides were imaged using Scion Imaging system (Frederick, Md.).
Rats were tested for hearing loss 72 h later using auditory brainstem evoked responses (ABRs). […] Cochleas obtained from these animals were decalcified, sectioned and processed for TRPV1 immunoreactivity using a polyclonal antibody (as described in Puntambekar et al., 2005). Visualization by confocal microscopy indicated TRPV1 immunoreactivity in the organ of Corti, supporting cells and spiral ganglion cells. […] The increases were 18±1 and 15±3 at 48 h and 72 h, respectively (FIG. 1C).

TRPV1 mRNA [8] = assay: Real time RT-PCR of TRPV1 mRNA in rat cochlea; type: in vivo; conditions: rat cochlea
Description: (§6) Animal procedures and sample collection: Male Wistar rats were used for this study. Pre-ABR's were performed 2-3 days before round window application of siTRPV1 or PBS. […] The cochleas were dissected and used for the preparation of total RNA or total protein extracts, or perfused with 2.5% glutaraldehyde for morphological studies by Scanning Electron Microscopy (SEM's) or 4% paraformaldehyde for immunocytochemistry.
as §2, §3, §4

NOX3 mRNA [9] = assay: Real time RT-PCR of NOX3 mRNA in rat cochlea; type: in vivo; conditions: cisplatin, 72 hrs
Description: as §6, §2, §3, §4

Rac1 [10] = assay: Real time RT-PCR of Rac1 transcript in rat cochlea; type: in vivo; conditions: cisplatin (data not shown)
Description: as §2, §3
(§7) The rodent set of primers and siRNA were based on the homologous sequences in the rat and mouse cDNA sequences. The primers were purchased from Sigma Genosys (St. Louis, Mo.). Purified siRNA duplexes were purchased from Qiagen (Valencia, Calif.). Primers were as follows: Rodent NOX3 (sense): 5′-[…]-3′ (SEQ ID NO: 9) (antisense): 5′-[…]-3′ (SEQ ID NO: 10), Rodent-GAPDH (sense): 5′-[…]-3′ (SEQ ID NO: 11) (antisense): 5′-[…]-3′ (SEQ ID NO: 12), Rodent TRPV1 (sense): 5′-[…]-3′ (SEQ ID NO: 13), (antisense): 5-[…]-3′ (SEQ ID NO: 14), Rodent Rac-1 (sense): 5′-[…]-3′ (SEQ ID NO: 15), (antisense): 5′-[…]-3′ (SEQ ID NO: 16), Rodent gp-91 (sense) 5′-[…]-3′ (SEQ ID NO: 17), (antisense): 5′-[…]-3′ (SEQ ID NO: 18), and Rat p22 (sense): 5′-[…]-3′ (SEQ ID NO: 19), (antisense) 5′-[…]-3′ (SEQ ID NO: 20) […]

gp91 [11] = assay: Real time RT-PCR of gp91 transcript in rat cochlea; type: in vivo; conditions: cisplatin (data not shown)
Description: as §2, §3, §7

p22 = assay: Real time RT-PCR of p22 transcript in rat cochlea; type: in vivo; conditions: cisplatin (data not shown)
Description: as §2, §3, §7

TRPV1 protein [12] = assay: Western blot of TRPV1 protein in whole cochlear lysates; type: in vivo, rat; conditions: 72 h following cisplatin
Description: Cochleae were homogenized in ice-cold TRIS 50:10:100. The whole tissue lysate was then used for Western blotting. After transfer to nitrocellulose membrane TRPV1 protein was visualized by chemiluminesence detection (ECL, Amersham, Piscataway, N.J.).

TRPV1 protein [13] = assay: Western blot of TRPV1 protein in UB-OC1 cells; type: cell-based, mouse; conditions: cisplatin 2.5 μM
TRPV1 mRNA [14] = assay: Real time RT-PCR of TRPV1 mRNA in UB/OC-1 cells; type: cell-based, mouse; conditions: cisplatin 2.5 μM, 24 h
Description: as §1, §2, §3, §4

UB-OC1 cells [15] = assay: Cisplatin-induced ROS generation by DCF2DA fluorescence in UB-OC1 cells; type: cell-based, mouse; conditions: cisplatin 2.5 μM, 30 minute
UB/OC-1 cells = assay: Intracellular Ca2+ with Fura4-AM in UB/OC-1 cells; type: cell-based, mouse; conditions: cisplatin
Description: as §5

outer hair cells = assay: Outer hair cell loss by scanning electron microscopy; type: in vivo, rat; conditions: cisplatin 16 mg/kg i.p., vehicle-pretreated cochlea, 3 days, N=3
Description: Immediately after completion of follow-up ABRs, deeply sedated rats were euthanized, their cochleae harvested and processed as described in (Kamimura et al, 1999). Sputter coated cochleae were then viewed and photographed with a Hitachi S-500 scanning electron microscope (Hitachi Ltd., Tokyo, Japan).
Hair cell counts were performed using a modified version of the method used by (Korver et al. 2002). Two representative areas of the basal turn and hook portion were photographed. In each area, inner or outer hair cells were counted in an area that was 10 pillar cell heads in length.
The results were shown, as the average survival percentage rates compared to the control group. Statistical analysis was performed using Student's t-test.
Five rats were administered either vehicle or TRPV1 siRNA (3 μl) by round window application. The rats served as their own controls since one cochlea was treated with vehicle and the other with siRNA.

[16] = pretreatment (capsazepine 10 μM; BAPTA-AM 30 min) before cisplatin

## c1ccc2c(c1)[I+]c1ccccc1-2 [DPI, diphenyleneiodonium]
TRPV1 [1]; pretreatment with 100 μM AEBSF or 10 μM DPI before cisplatin 2.5 μM
  reduction of TRPV1 immunofluorescence: 70%
NOX3 mRNA [2]; DPI 10 μM
  effect on cisplatin-induced increase in NOX3 expression: inhibited
gp91 [3]; DPI 10 μM
  effect on cisplatin-induced increase in gp91 expression: inhibited
Rac1 [4]; DPI 10 μM
  effect on cisplatin-induced increase in Rac1 expression: inhibited
UB-OC1 cells [5]
  effect on cell viability over a 24 h period: did not significantly affect cell viability
NADPH oxidase
  effect on NADPH oxidase activity: blockade of enzyme activity

## Oc1cc2c(cc1O)CN(C(=S)NCCc1ccc(Cl)cc1)CCC2 [capsazepine]
UB-OC1 cells [6]
  effect on cell apoptosis compared to vehicle-treated control: Neither capsazepine nor ruthenium red alone had any significant effect
  apoptotic cells (TUNEL), of total cells: ~7%
p53; [16]
  effect on cisplatin-induced increase in p53: attenuated
Bax; [16]
  effect on cisplatin-induced increase in Bax: attenuated
UB/OC-1
  effect on ROS generation of the gentamicin group: suppressed

## N.N.[Cl][Pt][Cl] [cisplatin]
TRPV1 [7]
  elevation of TRPV1 immunoreactivity in hair cells and spiral ganglion cells: 2-3 fold
TRPV1 mRNA [8]; 24 h following cisplatin
  increase in TRPV1 transcripts: 15±1 fold
TRPV1 mRNA [8]; 48 h following cisplatin
  increase in TRPV1 transcripts: 18±1
TRPV1 mRNA [8]; 72 h following cisplatin
  increase in TRPV1 transcripts: 15±3
TRPV1 mRNA [8]; lipoic acid experiment (FIG. 1D), 72 hrs
  level of induction of TRPV1 by cisplatin: 5.5±1.5 fold
NOX3 mRNA [9]
  change in NOX3 transcript in the cochlea: small but statistically significant increase
Rac1 [10]
  increase in Rac1 expression: 478±85 fold
gp91 [11]
  increase in gp91 expression: 1000±102 fold
p22
  increase in p22 expression: 8±1 fold
TRPV1 protein [12]
  TRPV1 protein (~95 kDa band) in whole cochlear lysates: increased TRPV1 protein
TRPV1 [1]; cisplatin 2.5 μM, 24 h
  induction in TRPV1 immunoreactivity over control vehicle treated cells: 71±29%
TRPV1 protein [13]
  increase in TRPV1 protein by Western blotting: 90%±10%
TRPV1 mRNA [14]
  change in TRPV1 mRNA: significant increase; also recorded: Three fold increase
UB-OC1 cells [15]
  ROS generation by DCF2DA fluorescence: robust increase
NOX3 mRNA [2]; cisplatin 2.5 μM
  increase in NOX3 mRNA: 2.7 fold
gp91 [3]; cisplatin 2.5 μM
  increase in gp91 mRNA: 2.8 fold
Rac1 [4]; cisplatin 2.5 μM
  increase in Rac1 mRNA: 2.1 fold
UB-OC1 cells [6]; cisplatin 20 μM, 24 h
  apoptotic cells (TUNEL): ~80%
p53; cisplatin, 24 hr
  p53 protein: increases
Bax; cisplatin, 24 hr
  Bax protein: increases
UB/OC-1 cells
  intracellular Ca2+: increased intracellular Ca2+
Outer hair cells
  percentage of outer hair cell loss, base: 42±9 percentage
  percentage of outer hair cell loss, hook: 72±14 percentage
  percentage of outer hair cell loss, middle turn: 22±2.7 percentage

## N.N.N.N.N.N.N.N.N.N.N.N.N.N.[Cl-].[Cl-].[Cl-].[Cl-].[Cl-].[Cl-].[O-2].[O-2].[Ru+3].[Ru+3].[Ru+4] [ruthenium red]
UB-OC1 cells [6]
  effect on cell apoptosis compared to vehicle-treated control: Neither capsazepine nor ruthenium red alone had any significant effect
  apoptotic cells (TUNEL), of total cells: ~7%
UB/OC-1
  effect on ROS generation of the gentamicin group: suppressed
